Measured values published in ChEMBL document CHEMBL5291721, “A preclinical secondary pharmacology resource illuminates target-adverse drug reaction associations of marketed drugs” (Nat Commun, 2023).

What was measured:
Adenosine receptor A1 = target: T1, Adenosine receptor A1 (Homo sapiens, UniProt P30542)
T1 sequence (P30542 whole entry): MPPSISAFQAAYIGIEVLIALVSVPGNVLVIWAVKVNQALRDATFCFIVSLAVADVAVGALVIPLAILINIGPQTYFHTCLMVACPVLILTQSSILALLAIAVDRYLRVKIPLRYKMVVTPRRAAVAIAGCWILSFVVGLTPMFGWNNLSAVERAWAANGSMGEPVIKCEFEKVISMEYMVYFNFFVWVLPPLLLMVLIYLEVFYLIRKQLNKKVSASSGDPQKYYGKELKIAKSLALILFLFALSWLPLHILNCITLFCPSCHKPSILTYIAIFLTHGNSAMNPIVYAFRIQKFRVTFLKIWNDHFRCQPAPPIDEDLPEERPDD

Histamine H1 receptor = Histamine H1 receptor (Homo sapiens, UniProt P35367)
Chain of Histamine H1 receptor (P35367 whole entry): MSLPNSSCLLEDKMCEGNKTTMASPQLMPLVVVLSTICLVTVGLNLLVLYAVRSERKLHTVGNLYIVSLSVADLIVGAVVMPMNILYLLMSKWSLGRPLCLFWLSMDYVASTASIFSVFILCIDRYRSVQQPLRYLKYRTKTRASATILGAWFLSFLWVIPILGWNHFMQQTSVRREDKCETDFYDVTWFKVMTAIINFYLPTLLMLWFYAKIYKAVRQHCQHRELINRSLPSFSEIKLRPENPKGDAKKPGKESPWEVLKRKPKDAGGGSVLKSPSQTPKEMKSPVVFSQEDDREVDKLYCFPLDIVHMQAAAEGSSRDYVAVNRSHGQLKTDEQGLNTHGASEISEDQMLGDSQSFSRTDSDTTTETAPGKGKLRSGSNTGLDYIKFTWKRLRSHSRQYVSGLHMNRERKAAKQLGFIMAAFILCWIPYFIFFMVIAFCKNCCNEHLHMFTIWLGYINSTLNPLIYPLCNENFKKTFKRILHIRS

[1] = target: Delta-type opioid receptor (Homo sapiens, UniProt P41143)
Chain of Delta-type opioid receptor (P41143 whole entry): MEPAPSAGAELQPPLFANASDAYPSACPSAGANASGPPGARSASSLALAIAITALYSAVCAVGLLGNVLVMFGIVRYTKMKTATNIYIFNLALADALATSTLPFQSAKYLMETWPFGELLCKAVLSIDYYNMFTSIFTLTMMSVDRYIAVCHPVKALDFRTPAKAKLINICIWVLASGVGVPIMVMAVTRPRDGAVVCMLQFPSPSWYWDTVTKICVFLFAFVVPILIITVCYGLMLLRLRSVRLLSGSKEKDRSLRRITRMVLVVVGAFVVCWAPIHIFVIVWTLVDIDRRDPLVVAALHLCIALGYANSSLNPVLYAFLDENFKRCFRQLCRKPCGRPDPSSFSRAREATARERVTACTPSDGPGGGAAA

[2] = target: T2, Muscarinic acetylcholine receptor M1 (Homo sapiens, UniProt P11229); assay type: functional
T2 sequence (P11229 whole entry): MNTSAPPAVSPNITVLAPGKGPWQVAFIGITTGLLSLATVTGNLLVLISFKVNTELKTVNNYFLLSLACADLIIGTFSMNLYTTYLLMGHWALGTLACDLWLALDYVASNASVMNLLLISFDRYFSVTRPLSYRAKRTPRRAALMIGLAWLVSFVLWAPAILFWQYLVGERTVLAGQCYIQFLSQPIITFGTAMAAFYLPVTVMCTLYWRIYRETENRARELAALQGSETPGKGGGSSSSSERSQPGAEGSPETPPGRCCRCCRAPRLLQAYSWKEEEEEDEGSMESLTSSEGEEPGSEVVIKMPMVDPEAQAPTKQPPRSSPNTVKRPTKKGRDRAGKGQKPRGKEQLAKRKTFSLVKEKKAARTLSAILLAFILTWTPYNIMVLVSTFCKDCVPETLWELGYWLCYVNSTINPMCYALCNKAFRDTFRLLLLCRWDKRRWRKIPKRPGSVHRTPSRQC

Histamine H2 receptor = Histamine H2 receptor (Homo sapiens, UniProt P25021); assay type: functional, cell-based
Chain of Histamine H2 receptor (P25021 whole entry): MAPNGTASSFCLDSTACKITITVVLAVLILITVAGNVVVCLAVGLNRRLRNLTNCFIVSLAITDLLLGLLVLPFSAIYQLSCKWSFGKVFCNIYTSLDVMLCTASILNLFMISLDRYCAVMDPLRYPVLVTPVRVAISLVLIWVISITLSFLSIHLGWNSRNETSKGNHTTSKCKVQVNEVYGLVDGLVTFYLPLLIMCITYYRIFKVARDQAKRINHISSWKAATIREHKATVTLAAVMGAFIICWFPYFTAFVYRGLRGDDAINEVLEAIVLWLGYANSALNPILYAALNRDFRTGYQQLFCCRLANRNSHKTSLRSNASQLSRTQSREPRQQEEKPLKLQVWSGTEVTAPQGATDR

Vasopressin V1a receptor = Vasopressin V1a receptor (Homo sapiens, UniProt P37288)
[3] = target: 5-hydroxytryptamine receptor 2A (Homo sapiens, UniProt P28223); assay type: functional, cell-based
Chain of 5-hydroxytryptamine receptor 2A (P28223 whole entry): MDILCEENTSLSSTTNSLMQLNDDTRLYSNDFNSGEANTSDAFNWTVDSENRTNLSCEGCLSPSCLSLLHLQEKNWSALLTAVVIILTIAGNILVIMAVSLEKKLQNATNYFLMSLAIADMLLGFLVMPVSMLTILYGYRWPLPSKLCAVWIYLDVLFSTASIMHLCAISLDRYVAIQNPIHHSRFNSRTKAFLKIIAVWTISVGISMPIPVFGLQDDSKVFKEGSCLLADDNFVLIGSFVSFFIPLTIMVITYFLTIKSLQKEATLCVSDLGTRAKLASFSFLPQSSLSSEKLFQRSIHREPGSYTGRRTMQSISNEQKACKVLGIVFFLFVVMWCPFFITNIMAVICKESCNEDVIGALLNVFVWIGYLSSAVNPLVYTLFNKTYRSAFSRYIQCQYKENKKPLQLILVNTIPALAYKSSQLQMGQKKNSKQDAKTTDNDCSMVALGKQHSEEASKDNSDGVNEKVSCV

[4] = target: Sodium-dependent serotonin transporter (Homo sapiens, UniProt P31645)
Melanocortin receptor 3 = Melanocortin receptor 3 (Homo sapiens, UniProt P41968)
Chain of Melanocortin receptor 3 (P41968 whole entry): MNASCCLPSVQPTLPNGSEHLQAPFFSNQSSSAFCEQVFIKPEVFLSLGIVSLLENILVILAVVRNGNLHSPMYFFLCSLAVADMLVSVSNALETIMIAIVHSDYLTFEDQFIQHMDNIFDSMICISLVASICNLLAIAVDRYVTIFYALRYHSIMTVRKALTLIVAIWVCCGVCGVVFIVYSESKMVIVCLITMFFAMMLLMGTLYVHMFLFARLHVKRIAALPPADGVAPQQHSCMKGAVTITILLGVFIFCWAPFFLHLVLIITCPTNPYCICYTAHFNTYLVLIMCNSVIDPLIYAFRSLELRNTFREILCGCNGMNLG

Endothelin-1 receptor = target: T3, Endothelin-1 receptor (Homo sapiens, UniProt P25101)
T3 sequence (P25101 whole entry): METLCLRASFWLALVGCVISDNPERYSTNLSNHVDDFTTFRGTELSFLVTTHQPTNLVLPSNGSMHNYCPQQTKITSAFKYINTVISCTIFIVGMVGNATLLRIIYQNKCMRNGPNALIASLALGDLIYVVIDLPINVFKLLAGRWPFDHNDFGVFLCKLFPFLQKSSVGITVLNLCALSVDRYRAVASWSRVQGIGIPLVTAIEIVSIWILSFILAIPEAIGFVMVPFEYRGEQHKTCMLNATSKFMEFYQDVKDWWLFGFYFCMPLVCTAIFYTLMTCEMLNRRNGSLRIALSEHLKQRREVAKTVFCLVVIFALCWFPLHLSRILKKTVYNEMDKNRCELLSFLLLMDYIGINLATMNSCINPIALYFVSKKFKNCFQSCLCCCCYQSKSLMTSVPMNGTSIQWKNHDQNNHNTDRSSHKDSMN

[5] = target: 3',5'-cyclic-AMP phosphodiesterase 4D (Homo sapiens, UniProt Q08499); assay type: functional
Chain of 3',5'-cyclic-AMP phosphodiesterase 4D (Q08499 whole entry): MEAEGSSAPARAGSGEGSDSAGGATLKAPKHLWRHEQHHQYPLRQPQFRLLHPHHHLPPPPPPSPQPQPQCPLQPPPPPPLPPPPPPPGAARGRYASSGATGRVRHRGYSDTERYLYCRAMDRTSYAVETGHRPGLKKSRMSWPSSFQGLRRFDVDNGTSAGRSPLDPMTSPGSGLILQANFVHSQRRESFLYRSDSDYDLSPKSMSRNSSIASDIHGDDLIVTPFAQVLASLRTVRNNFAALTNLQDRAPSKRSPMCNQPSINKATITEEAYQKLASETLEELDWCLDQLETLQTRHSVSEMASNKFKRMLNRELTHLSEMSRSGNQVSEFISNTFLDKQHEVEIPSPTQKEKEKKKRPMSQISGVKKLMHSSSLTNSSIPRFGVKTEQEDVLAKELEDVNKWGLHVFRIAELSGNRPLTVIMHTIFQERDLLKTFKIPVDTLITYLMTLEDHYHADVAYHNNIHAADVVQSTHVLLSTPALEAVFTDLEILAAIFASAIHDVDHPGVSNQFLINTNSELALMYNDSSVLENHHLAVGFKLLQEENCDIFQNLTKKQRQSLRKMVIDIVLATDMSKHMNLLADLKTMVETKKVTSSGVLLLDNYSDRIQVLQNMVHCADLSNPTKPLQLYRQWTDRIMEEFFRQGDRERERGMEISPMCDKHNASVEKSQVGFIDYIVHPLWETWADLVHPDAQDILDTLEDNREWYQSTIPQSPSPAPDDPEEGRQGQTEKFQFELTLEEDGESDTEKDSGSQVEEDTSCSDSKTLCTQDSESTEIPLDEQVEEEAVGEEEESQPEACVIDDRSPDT

Mu-type opioid receptor = Mu-type opioid receptor (Homo sapiens, UniProt P35372); test: biochemical; assay type: functional
Chain of Mu-type opioid receptor (P35372 whole entry): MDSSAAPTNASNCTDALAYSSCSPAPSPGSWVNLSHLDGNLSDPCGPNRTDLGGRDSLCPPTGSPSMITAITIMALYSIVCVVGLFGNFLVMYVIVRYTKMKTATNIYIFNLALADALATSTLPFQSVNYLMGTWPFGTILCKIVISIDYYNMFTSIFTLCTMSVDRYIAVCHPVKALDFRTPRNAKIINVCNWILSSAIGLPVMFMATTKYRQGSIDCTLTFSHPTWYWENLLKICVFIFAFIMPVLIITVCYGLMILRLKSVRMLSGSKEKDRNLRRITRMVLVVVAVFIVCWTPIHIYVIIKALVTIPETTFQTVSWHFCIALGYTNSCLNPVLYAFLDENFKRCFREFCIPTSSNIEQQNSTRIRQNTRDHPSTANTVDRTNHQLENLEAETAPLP

[6] = target: T4, 5-hydroxytryptamine receptor 2C (Homo sapiens, UniProt P28335)
T4 sequence (P28335 whole entry): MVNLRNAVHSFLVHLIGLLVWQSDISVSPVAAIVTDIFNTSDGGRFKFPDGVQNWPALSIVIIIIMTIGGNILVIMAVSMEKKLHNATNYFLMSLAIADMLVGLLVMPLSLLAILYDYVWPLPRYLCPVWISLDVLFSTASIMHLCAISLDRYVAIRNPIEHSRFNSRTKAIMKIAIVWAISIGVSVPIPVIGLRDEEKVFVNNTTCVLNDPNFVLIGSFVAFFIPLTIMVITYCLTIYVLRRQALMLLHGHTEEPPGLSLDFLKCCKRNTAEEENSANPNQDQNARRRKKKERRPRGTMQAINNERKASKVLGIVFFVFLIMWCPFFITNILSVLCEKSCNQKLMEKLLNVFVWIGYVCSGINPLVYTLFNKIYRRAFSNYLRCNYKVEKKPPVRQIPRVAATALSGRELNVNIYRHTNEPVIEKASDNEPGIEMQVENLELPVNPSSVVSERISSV

[7] = target: T5, Gastrin/cholecystokinin type B receptor (Homo sapiens, UniProt P32239)
T5 sequence (P32239 whole entry): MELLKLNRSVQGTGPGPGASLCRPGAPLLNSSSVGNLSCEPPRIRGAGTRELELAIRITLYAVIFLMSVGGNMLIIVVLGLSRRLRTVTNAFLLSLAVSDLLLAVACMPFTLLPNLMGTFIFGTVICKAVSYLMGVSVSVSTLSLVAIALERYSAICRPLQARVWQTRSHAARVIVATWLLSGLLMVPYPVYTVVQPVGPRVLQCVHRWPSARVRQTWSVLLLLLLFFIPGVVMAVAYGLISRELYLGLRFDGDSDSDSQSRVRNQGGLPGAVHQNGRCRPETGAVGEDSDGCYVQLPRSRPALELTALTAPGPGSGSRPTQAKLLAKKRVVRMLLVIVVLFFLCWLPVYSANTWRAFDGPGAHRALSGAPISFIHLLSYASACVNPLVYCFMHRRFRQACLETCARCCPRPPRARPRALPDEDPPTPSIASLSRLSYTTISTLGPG

[8] = target: Voltage-gated inwardly rectifying potassium channel KCNH2 (Homo sapiens, UniProt Q12809); assay type: functional; details: read-out: AC50
Chain of Voltage-gated inwardly rectifying potassium channel KCNH2 (Q12809 whole entry): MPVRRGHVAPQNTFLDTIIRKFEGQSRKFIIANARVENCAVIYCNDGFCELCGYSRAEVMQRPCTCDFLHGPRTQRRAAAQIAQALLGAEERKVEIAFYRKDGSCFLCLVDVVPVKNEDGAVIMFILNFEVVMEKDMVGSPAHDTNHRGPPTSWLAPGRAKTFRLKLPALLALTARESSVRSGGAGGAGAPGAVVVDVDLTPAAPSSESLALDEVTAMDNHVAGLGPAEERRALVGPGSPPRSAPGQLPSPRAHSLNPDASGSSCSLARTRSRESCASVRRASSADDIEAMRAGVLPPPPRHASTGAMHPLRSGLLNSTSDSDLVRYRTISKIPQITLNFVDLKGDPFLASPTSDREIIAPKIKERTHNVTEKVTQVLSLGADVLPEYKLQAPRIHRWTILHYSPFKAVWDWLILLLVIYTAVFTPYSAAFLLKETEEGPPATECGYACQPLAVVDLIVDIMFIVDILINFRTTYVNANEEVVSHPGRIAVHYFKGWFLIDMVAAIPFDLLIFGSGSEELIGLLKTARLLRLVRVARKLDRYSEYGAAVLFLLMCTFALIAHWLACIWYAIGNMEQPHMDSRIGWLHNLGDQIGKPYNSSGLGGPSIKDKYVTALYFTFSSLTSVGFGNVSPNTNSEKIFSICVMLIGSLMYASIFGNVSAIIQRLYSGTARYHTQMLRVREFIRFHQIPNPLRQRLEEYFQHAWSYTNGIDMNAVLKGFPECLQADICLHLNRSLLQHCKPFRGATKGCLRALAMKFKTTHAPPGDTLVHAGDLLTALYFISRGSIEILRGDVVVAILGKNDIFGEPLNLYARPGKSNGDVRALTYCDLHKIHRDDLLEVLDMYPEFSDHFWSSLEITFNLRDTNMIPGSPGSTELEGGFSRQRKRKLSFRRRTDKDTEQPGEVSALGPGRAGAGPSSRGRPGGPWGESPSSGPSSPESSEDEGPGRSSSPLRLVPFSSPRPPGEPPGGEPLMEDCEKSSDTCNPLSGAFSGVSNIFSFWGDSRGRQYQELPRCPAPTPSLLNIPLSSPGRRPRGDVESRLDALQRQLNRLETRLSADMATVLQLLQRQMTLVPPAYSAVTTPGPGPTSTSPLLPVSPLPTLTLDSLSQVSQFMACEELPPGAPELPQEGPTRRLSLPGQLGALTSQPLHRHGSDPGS

[9] = target: Sodium-dependent noradrenaline transporter (Homo sapiens, UniProt P23975)
Chain of Sodium-dependent noradrenaline transporter (P23975 whole entry): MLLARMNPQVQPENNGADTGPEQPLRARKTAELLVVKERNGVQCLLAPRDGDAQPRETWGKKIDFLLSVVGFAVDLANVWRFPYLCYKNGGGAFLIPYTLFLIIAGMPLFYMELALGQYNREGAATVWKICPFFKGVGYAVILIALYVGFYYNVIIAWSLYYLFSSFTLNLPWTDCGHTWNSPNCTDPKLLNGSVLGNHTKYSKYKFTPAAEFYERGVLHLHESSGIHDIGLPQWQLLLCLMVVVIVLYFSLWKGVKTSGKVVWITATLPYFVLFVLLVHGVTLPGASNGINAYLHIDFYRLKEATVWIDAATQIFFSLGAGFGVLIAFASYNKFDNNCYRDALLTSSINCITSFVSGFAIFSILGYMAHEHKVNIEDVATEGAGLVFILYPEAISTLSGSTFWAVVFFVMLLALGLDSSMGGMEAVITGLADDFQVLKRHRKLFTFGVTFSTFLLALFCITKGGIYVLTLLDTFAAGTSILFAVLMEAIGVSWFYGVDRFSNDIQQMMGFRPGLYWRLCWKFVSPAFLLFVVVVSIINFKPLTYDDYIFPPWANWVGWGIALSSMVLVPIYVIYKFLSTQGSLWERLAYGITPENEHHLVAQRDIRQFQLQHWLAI
Further: assay procedure not described here.

| Structure (SMILES) | AC50 (Adenosine receptor A1) | AC50 (Histamine H1 receptor) | AC50 [1] | AC50 [2] | AC50 (Histamine H2 receptor) | AC50 (Vasopressin V1a receptor) | AC50 [3] | AC50 [4] | AC50 (Melanocortin receptor 3) | AC50 (Endothelin-1 receptor) | AC50 [5] | AC50 (Mu-type opioid receptor) | AC50 [6] | AC50 [7] | AC50 [8] | AC50 [9] |
| --- | --- | --- | --- | --- | --- | --- | --- | --- | --- | --- | --- | --- | --- | --- | --- | --- |
| O=C1C(O)=C([C@H]2CC[C@H](c3ccc(Cl)cc3)CC2)C(=O)c2ccccc21 [ATOVAQUONE] | > 30 µM | > 30 µM | > 30 µM | > 30 µM | > 30 µM | > 30 µM | > 30 µM | > 30 µM | > 30 µM | > 30 µM | > 30 µM | > 30 µM | > 30 µM | > 30 µM | > 30 µM | > 30 µM |
| COc1ccc(CCNCC(O)COc2cccc(C)c2)cc1OC (configuration not stated) [BEVANTOLOL] | > 10 µM | > 10 µM | > 30 µM | > 10 µM | > 30 µM | > 10 µM | > 10 µM | 3 µM | > 10 µM | – | > 30 µM | > 30 µM | > 30 µM | – | 3.41 µM | > 30 µM |
| Fc1ccc(C(c2ccccc2)(c2ccccc2F)n2ccnc2)cc1 (configuration not stated) [FLUTRIMAZOLE] | > 30 µM | > 30 µM | > 30 µM | > 30 µM | > 30 µM | > 30 µM | > 30 µM | > 30 µM | > 30 µM | > 30 µM | > 30 µM | > 30 µM | > 30 µM | 25 µM | 1.68 µM | > 30 µM |
| NC(=O)CN1CC(O)CC1=O (configuration not stated) [OXIRACETAM] | > 30 µM | > 30 µM | > 30 µM | > 30 µM | > 30 µM | > 30 µM | > 30 µM | > 30 µM | > 30 µM | > 30 µM | > 30 µM | > 30 µM | > 30 µM | > 30 µM | > 30 µM | > 30 µM |
